The test system of series [1] is JJN-3 (NIK translocated) multiple myeloma cells. Briefly: Antiproliferative activity on JJN-3 multiple myeloma cells (CellTiter-Glo). It is filed as cell-based, human. To be noted: Homo sapiens, JJN-3, 96 h, JJN-3 (NIK translocated) cells, 96 hr treatment, averaged values, read-out: JJN-3 Proliferation inhibition (IC50 (nM)). As for the experimental part: (§1) Determination of Antiproliferative Activity on JJN-3 (NIK Translocated) and KMS12-BM (NIK WT) Multiple Myeloma Cells
(§2) All compounds tested were dissolved in DMSO and further dilutions were made in culture medium. Final DMSO concentration was 0.3% (v/v) in cell proliferation assays. Viability was assessed using CellTiter-Glo cell viability assay kit (Promega). […] Cells were routinely kept as suspension cells at 37° C. in a humidified 5% CO2 atmosphere. Cells were passaged at a seeding density of 0.2×10^6/ml twice a week. Cells were seeded in black tissue culture treated 96-well plates (Perkin Elmer). Densities used for plating ranged from 15000 (JJN3) to 20000 (KMS12BM) cells per well in a total volume of 135 μl medium. Drugs and/or solvents were added (15 μl) to a final volume of 150 μl. Following 96 hr of treatment, plates were removed from the incubator and allowed to equilibrate to room temperature for approx 10 min. 75 μl CellTiter-Glo reagent was added to each well that was then covered (Perkin Elmer Topseal) and shaken on plate shaker for 10 min. Luminescence was measured on a HTS Topcount (Perkin Elmer). […] For initial screening purposes, compounds were tested using a 9 point dilution curve (serial 1:3 dilutions). For each experiment, controls (containing no drug) and a blank incubation (containing cells read at the time of compound addition) were run in parallel. The blank value was subtracted from all control and sample values. For each sample, the mean value for cell growth (in relative light units) was expressed as a percentage of the mean value for cell growth of the control.

In series [2] the target is recombinant human NF-kappaB-inducing Kinase (NIK/MAP3K14) (Homo sapiens, UniProt Q99558). Kind of series: Inhibition of auto-phosphorylation of recombinant human NIK/MAP3K14 activity (AlphaScreen). The format is biochemical. As to conditions: 25 microM ATP, averaged over all measurements on all batches. The method, then: Pharmacological Part Biological assay A Inhibition of auto-phosphorylation of recombinant human NF-kappaB-inducing Kinase (NIK/MAP3K14) Activity (AlphaScreen®)
NIK/MAP3K14 auto-phosphorylation activity was measured using the AlphaScreen® (αscreen) format (Perkin Elmer). All compounds tested were dissolved in dimethyl sulfoxide (DMSO) and further dilutions were made in assay buffer. Final DMSO concentration was 1% (v/v) in assays. Assay buffer was 50 mM Tris pH 7.5 containing 1 mM EGTA (ethylene glycol tetraacetic acid), 1 mM DTT (dithiothreitol), 0.1 mM Na3VO4, 5 mM MgCl2, 0.01% Tween® 20. Assays were carried out in 384 well Alphaplates (Perkin Elmer). […] Incubations were initiated by addition of GST-tagged NIK/MAP3K14 enzyme, carried out for 1 h at 25° C. and terminated by addition of stop buffer containing anti-phospho-IKK Ser176/180 antibody. Protein A Acceptor and Glutathione-Donor beads were added before reading using an EnVision® Multilabel Plate Reader (Perkin Elmer). Signal obtained in the wells containing blank samples was subtracted from all other wells and IC50's were determined by fitting a sigmoidal curve to % inhibition of control versus Log10 compound concentration.
For orientation: Bead proximity is the source of the signal in Alpha formats.

In series [3] the test system is KMS12-BM (NIK WT) multiple myeloma cells. Kind of series: Antiproliferative activity on KMS12-BM multiple myeloma cells (CellTiter-Glo). The format is cell-based, human. As to conditions: Homo sapiens, KMS-12-BM, 96 h, 96 hr treatment, averaged values, read-out: KMS-12 Proliferation inhibition (IC50 (nM)). The method, then: as §1, §2
A general note: ATP-based viability assays read luminescence as a measure of living cells.

What is called melting point is the temperature, or range, at which the solid turns liquid.

Molecules are shown by their SMILES.

Sequence of recombinant human NF-kappaB-inducing Kinase (NIK/MAP3K14) (Q99558 whole entry): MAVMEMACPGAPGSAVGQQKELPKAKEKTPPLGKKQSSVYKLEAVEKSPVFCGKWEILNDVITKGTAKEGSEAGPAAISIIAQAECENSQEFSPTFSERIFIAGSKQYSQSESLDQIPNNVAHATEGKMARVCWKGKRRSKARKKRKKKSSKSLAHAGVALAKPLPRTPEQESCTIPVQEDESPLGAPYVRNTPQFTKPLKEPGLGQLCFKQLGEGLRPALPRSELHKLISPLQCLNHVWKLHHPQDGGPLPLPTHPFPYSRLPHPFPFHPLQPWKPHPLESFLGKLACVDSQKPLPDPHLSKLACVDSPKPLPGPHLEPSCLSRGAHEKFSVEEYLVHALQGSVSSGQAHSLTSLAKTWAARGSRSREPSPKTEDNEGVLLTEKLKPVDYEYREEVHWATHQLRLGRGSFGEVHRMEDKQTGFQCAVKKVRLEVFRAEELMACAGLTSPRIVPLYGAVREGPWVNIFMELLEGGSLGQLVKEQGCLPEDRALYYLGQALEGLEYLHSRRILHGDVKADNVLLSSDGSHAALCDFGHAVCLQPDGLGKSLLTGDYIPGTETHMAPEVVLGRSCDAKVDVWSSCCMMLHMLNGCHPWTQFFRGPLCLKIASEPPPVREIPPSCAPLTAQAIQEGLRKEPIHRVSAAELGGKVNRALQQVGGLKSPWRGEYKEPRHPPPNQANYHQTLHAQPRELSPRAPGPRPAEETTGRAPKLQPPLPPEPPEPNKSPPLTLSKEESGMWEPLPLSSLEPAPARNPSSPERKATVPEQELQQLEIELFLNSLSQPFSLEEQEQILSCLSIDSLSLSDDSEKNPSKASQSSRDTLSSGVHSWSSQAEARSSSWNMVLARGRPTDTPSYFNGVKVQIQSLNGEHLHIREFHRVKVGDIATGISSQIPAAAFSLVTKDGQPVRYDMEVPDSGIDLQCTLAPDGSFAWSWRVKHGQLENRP

Compound `CC(C)Oc1ncc(Cl)cc1Nc1nccc(-c2cc(C#N)c3c(c2)[C@@](C)(CO)CN3)n1` [Compound 30] showed a melting point of 195 °C. The IC50 in series [1] is 1260 nM. For the same compound, the IC50 in series [2] came out at 51.3 nM. The IC50 in series [3] is greater than 10000 nM.
`CC1(CO)CNc2c(C#N)cc(-c3ccnc(Nc4cccnc4C(F)(F)F)n3)cc21` (stereo not drawn) [Compound 31] displayed a melting point of 202 °C. The IC50 in series [1] was determined as 2000 nM. In series [2], the IC50 worked out at 9.8 nM. Also, the IC50 in series [3] is greater than 10000 nM.
In turn, `C[C@]1(CO)CNc2c(C#N)cc(-c3ccnc(Nc4cccn(CC(O)CO)c4=O)n3)cc21` (stereo partly drawn) [Compound 31i] registered a melting point greater than 250 °C. Also, the IC50 in series [1] is roughly 5010 nM. Further, the IC50 in series [2] was found to be 3.3 nM. For the same compound, the IC50 in series [3] was greater than 10000 nM.
Take `COCCOc1ncccc1Nc1nccc(-c2cc(C#N)c3c(c2)[C@](C)(CO)CN3)n1` [Compound 34]: the melting point stood at 152 °C. Further, the IC50 in series [1] was 2880 nM. Further, the IC50 in series [2] was determined as 38 nM. In addition, the IC50 in series [3] was greater than 10000 nM.
The like results for `CCOc1ncc(Cl)cc1Nc1nccc(-c2cc(C#N)c3c(c2)[C@@](C)(CO)CN3)n1` [Compound 35] were, in that order, 220 °C, 794 nM, 15.9 nM and greater than 10000 nM.
Consider `COc1ncc(F)cc1Nc1nccc(-c2cc(C#N)c3c(c2)[C@@](C)(CO)CN3)n1` [Compound 36], for which the melting point is greater than 250 °C. Also, in series [1], the IC50 amounted to 288 nM. Further, in series [2], the IC50 worked out at 3.3 nM. Further, in series [3], the IC50 is greater than 10000 nM.
As to `COc1ccncc1Nc1nccc(-c2cc(C#N)c3c(c2)[C@@](C)(CO)CN3)n1` [Compound 37], the melting point stood at 210 °C. The IC50 in series [1] stood at 3470 nM. Also, the IC50 in series [2] was 1.8 nM. In addition, the IC50 in series [3] is greater than 10000 nM.
The like results for `COCCN(C)c1nc(OC)c(Nc2nccc(-c3cc(C#N)c4c(c3)[C@@](C)(CO)CN4)n2)cc1Cl` [Compound 38] were, in that order, 215 °C, 79 nM, 19.5 nM and greater than 10000 nM.
Turning to `COCCOc1ncc(Cl)cc1Nc1nccc(-c2cc(C#N)c3c(c2)[C@@](C)(CO)CN3)n1` [Compound 39], the melting point turned out to be 204 °C. Further, in series [1], the IC50 was 324 nM. Also, the IC50 in series [2] is 8.5 nM. In addition, the IC50 in series [3] is greater than 10000 nM.
Take `CCCCOc1ncccc1Nc1nccc(-c2cc(C#N)c3c(c2)[C@@](C)(CO)CN3)n1` [Compound 40]: the melting point came out at 143 °C. Also, the IC50 in series [1] came to 550 nM. Also, the IC50 in series [2] was found to be 16.6 nM. Further, the IC50 in series [3] was determined as 3800 nM.
The like results for `C[C@]1(CO)CNc2c(C#N)cc(-c3ccnc(Nc4cccnc4OC[C@@H]4CCCO4)n3)cc21` [Compound 42] were, in that order, 154 °C, 347 nM, 6.2 nM and greater than 10000 nM.
The like results for `C[C@]1(CO)CNc2c(C#N)cc(-c3ccnc(Nc4cccnc4OC[C@H]4CCCO4)n3)cc21` [Compound 43] were, in that order, 141 °C, 115 nM, 4 nM and greater than 10000 nM.
The like results for `COc1nc(C2CCOCC2)ccc1Nc1nccc(-c2cc(C#N)c3c(c2)[C@@](C)(CO)CN3)n1` [Compound 44] were, in that order, 217 °C, 81 nM, 9.3 nM and greater than 10000 nM.
The compound `C[C@]1(CO)CNc2c(C#N)cc(-c3ccnc(Nc4cccnc4OCC4CC4)n3)cc21` [Compound 45] displayed a melting point of 138 °C. Also, in series [1], the IC50 was determined as 195 nM. The IC50 in series [2] came to 9.1 nM. In addition, the IC50 in series [3] was greater than 10000 nM.
The like results for `COCCOc1ccncc1Nc1nccc(-c2cc(C#N)c3c(c2)[C@@](C)(CO)CN3)n1` [Compound 47] were, in that order, 215 °C, 1120 nM, 13.2 nM and greater than 10000 nM.
The like results for `COCCOc1nc(C(F)(F)F)ccc1Nc1nccc(-c2cc(C#N)c3c(c2)[C@@](C)(CO)CN3)n1` [Compound 53] were, in that order, 190 °C, 3470 nM, 95.5 nM and greater than 10000 nM.
As to `COCCOc1nc(C2CC2)ccc1Nc1nccc(-c2cc(C#N)c3c(c2)[C@@](C)(CO)CN3)n1` [Compound 62], the melting point is 117 °C. Besides, the IC50 in series [1] worked out at 977 nM. Also, the IC50 in series [2] amounted to 29.5 nM. Also, the IC50 in series [3] is greater than 10000 nM.
In the case of `COc1ncccc1Nc1ncc(F)c(-c2cc(C#N)c3c(c2)C(C)(CO)CN3)n1` (stereo not drawn) [Compound 101], the melting point was greater than 250 °C. Besides, the IC50 in series [1] was determined as 204 nM. The IC50 in series [2] was found to be 2.2 nM. The IC50 in series [3] stood at 2460 nM.
The like results for `COc1ncc(Cl)cc1Nc1ncc(F)c(-c2cc(C#N)c3c(c2)C(C)(CO)CN3)n1` (stereo not drawn) [Compound 102] were, in that order, greater than 250 °C, 1580 nM, 6.5 nM and greater than 10000 nM.
The like results for `COc1ncccc1Nc1ncc(F)c(-c2cc(C#N)c3c(c2)[C@@](C)(CO)CN3)n1` [Compound 103] were, in that order, greater than 250 °C, 120 nM, 1 nM and 1580 nM.
The like results for `COc1ncc(Cl)cc1Nc1ncc(F)c(-c2cc(C#N)c3c(c2)[C@@](C)(CO)CN3)n1` [Compound 104] were, in that order, greater than 250 °C, 112 nM, 11.2 nM and greater than 10000 nM.
On to `CC1(CO)CNc2c(C#N)cc(-c3nc(Nc4cc(Cl)cnc4OC4CCOCC4)ncc3F)cc21` (stereo not drawn) [Compound 105], for which the melting point worked out at 284 °C. In addition, the IC50 in series [1] amounted to 2240 nM. In addition, the IC50 in series [2] worked out at 30.9 nM. Further, the IC50 in series [3] is roughly 3720 nM.
The like results for `COCCOc1ncccc1Nc1ncc(F)c(-c2cc(C#N)c3c(c2)[C@@](C)(CO)CN3)n1` [Compound 106] were, in that order, greater than 250 °C, 275 nM, 3.4 nM and 2630 nM.
The like results for `CC1(CO)CNc2c(C#N)cc(-c3nc(Nc4cccnc4OC4CCOCC4)ncc3F)cc21` (stereo not drawn) [Compound 107] were, in that order, 226 °C, 309 nM, 4.8 nM and 562 nM.
The like results for `CNCC1(C)CNc2c(C#N)cc(-c3ccnc(Nc4cccnc4OC)n3)cc21` (stereo not drawn) [Compound 108] were, in that order, 173 °C, 2140 nM, 25.1 nM and roughly 3980 nM.
Compound `COc1ncc(Cl)cc1Nc1nccc(-c2cc(C#N)c3c(c2)[C@](C)(COC(=O)[C@H](C)N)CN3)n1` [Compound 109] showed a melting point of 171 °C. For the same compound, the IC50 in series [1] amounted to 794 nM. Moreover, in series [2], the IC50 amounted to 38 nM. Further, in series [3], the IC50 was greater than 10000 nM.
The like results for `COc1ncccc1Nc1nccc(-c2cc(C#N)c3c(c2)C(C)(CNC2CC2)CN3)n1` (stereo not drawn) [Compound 110] were, in that order, 116 °C, 1860 nM, 33.9 nM and greater than 10000 nM.
